How the values were obtained:
[1] = system: bedstraw; test: Test B pre/postemergence bedstraw; type: in vivo, Galium aparine
Procedure, shortened: (§1)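 Herbicidal effect was estimated by eye on a ten-point control scale after plants spent twelve to sixteen days in a greenhouse following soil or foliar treatment. Foliar sprays targeted plants at one to four leaves; all doses were formulated in a non-phytotoxic solvent with surfactant.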

[2] = system: blackgrass; test: Test B pre/postemergence blackgrass; type: in vivo, Alopecurus myosuroides
Procedure, shortened: as §1

[3] = system: surinam grass; test: Test B pre/postemergence surinam grass; type: in vivo, Brachiaria decumbens
Procedure, shortened: as §1

[4] = system: cocklebur; test: Test B pre/postemergence cocklebur; type: in vivo, Xanthium strumarium
Procedure, shortened: as §1

[5] = system: corn; test: Test B pre/postemergence corn; type: in vivo, Zea mays
Procedure, shortened: as §1

[6] = system: crabgrass; test: Test B pre/postemergence crabgrass; type: in vivo, Digitaria sanguinalis
Procedure, shortened: as §1

[7] = system: giant foxtail; test: Test B pre/postemergence giant foxtail; type: in vivo, Setaria faberii
Procedure, shortened: as §1

[8] = system: morningglory; test: Test B pre/postemergence morningglory; type: in vivo, Ipomoea hederacea
Procedure, shortened: as §1

[9] = system: pigweed; test: Test B pre/postemergence pigweed; type: in vivo, Amaranthus retroflexus
Procedure, shortened: as §1

[10] = system: rape; test: Test B pre/postemergence rape; type: in vivo, Brassica napus
Procedure, shortened: as §1

[11] = system: sugar beet; test: Test B pre/postemergence sugar beet; type: in vivo, Beta vulgaris
Procedure, shortened: as §1

[12] = system: wheat; test: Test B pre/postemergence wheat; type: in vivo, Triticum aestivum
Procedure, shortened: as §1

[13] = system: wild oat; test: Test B pre/postemergence wild oat; type: in vivo, Avena fatua
Procedure, shortened: as §1

[14] = system: purple nutsedge; test: Test B pre/postemergence purple nutsedge; type: in vivo, Cyperus rotundus
Procedure, shortened: as §1

[15] = system: rice; test: Test B flood test rice; type: in vivo, Oryza sativa
Procedure, shortened: (§2)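 Flood test on plants grown to the 2-leaf stage; treated plants kept in greenhouse twelve to sixteen days, then visually rated against controls on a 0 (no effect) to 10 (complete control) scale.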

[16] = system: bamyardgrass; test: Test B flood test barnyardgrass; type: in vivo, Echinochloa crus-galli
Procedure, shortened: as §2

[17] = Postemergence, Rate 62 g/ha, scale of 0 to 10, 0 is no effect, 10 is complete control
[18] = Postemergence, Rate 125 g/ha, scale 0 to 10, 0 is no effect, 10 is complete control
[19] = Postemergence, Rate 500 g/ha, scale of 0 to 10 where 0 is no effect and 10 is complete control
[20] = Preemergence, Rate 62 g/ha, scale 0 to 10 (0 no effect, 10 complete control)
[21] = Preemergence, Rate 125 g/ha, scale 0 to 10, 0 is no effect, 10 is complete control
[22] = Preemergence, Rate 500 g/ha, scale of 0 to 10 where 0 is no effect and 10 is complete control
[23] = Rate 250 g/ha, Postemergence, scale of 0 to 10 where 0 is no effect and 10 is complete control
[24] = Rate 62 g/ha, flood test species, Pre-emergence, visual evaluation after twelve to sixteen days
[25] = Rate 125 g/ha, under heading Pre-emergence, flood test species, visual evaluation after twelve to sixteen days
[26] = Rate 250 g/ha, Pre-emergence (flood test species), scale 0 to 10, 0 is no effect, 10 is complete control
[27] = Rate 500 g/ha, Pre-emergence section of Table B, 0 to 10 scale (0 no effect, 10 complete control)

## CCCCn1c(=O)on(C(=O)N(c2ccccc2)C(C)C)c1=O [Compound 556]
[1]; [17]
  Bedstraw plant response rating: 0
[1]; [18]
  Bedstraw plant response rating: 0
[1]; [19]
  Plant response rating, Bedstraw: 0
[1]; [20]
  Bedstraw plant response rating: 0
[1]; [21]
  Bedstraw plant response rating: 0
[1]; Preemergence, Rate 250 g/ha
  Bedstraw plant response rating (0 to 10 scale): 0
[1]; [22]
  Bedstraw plant response rating: 0
[1]; [23]
  Plant response rating, Bedstraw: 0
[2]; [17]
  Blackgrass plant response rating: 0
[2]; [18]
  Blackgrass plant response rating: 3
[2]; [19]
  Plant response rating, Blackgrass: 6
[2]; [20]
  Blackgrass plant response rating: 6
[2]; [21]
  Blackgrass plant response rating: 9
[2]; Preemergence, Rate 250 g/ha
  Blackgrass plant response rating (0 to 10 scale): 10
[2]; [22]
  Blackgrass plant response rating: 10
[2]; [23]
  Plant response rating, Blackgrass: 3
[3]; [17]
  B. signalgrass plant response rating: 0
[3]; [18]
  B. signalgrass plant response rating: 2
[3]; [19]
  Plant response rating, B. signalgrass: 7
[3]; [20]
  B. signalgrass plant response rating: 6
[3]; [21]
  B. signalgrass plant response rating: 7
[3]; Preemergence, Rate 250 g/ha
  B. signalgrass plant response rating (0 to 10 scale, 0 is no effect, 10 is complete control): 7
[3]; [22]
  B. signalgrass plant response rating: 9
[3]; [23]
  Plant response rating, B. signalgrass: 4
[4]; [17]
  Cocklebur plant response rating: 0
[4]; [18]
  Cocklebur plant response rating: 0
[4]; [19]
  Plant response rating, Cocklebur: 0
[4]; [20]
  Cocklebur plant response rating: 0
[4]; [21]
  Cocklebur plant response rating: 0
[4]; Preemergence, Rate 250 g/ha
  Cocklebur plant response rating (0 to 10 scale): 0
[4]; [22]
  Cocklebur plant response rating: 0
[4]; [23]
  Plant response rating, Cocklebur: 0
[5]; [17]
  Corn plant response rating: 0
[5]; [18]
  Corn plant response rating: 0
[5]; [19]
  Plant response rating, Corn: 0
[5]; [20]
  Corn plant response rating: 0
[5]; [21]
  Corn plant response rating: 0
[5]; Preemergence, Rate 250 g/ha
  Corn plant response rating (0 to 10 scale): 0
[5]; [22]
  Corn plant response rating: 0
[5]; [23]
  Plant response rating, Corn: 0
[6]; [17]
  Crabgrass plant response rating: 0
[6]; [18]
  Crabgrass plant response rating: 2
[6]; [19]
  Plant response rating, Crabgrass: 2
[6]; [20]
  Crabgrass plant response rating: 9
[6]; [21]
  Crabgrass plant response rating: 9
[6]; Preemergence, Rate 250 g/ha
  Crabgrass plant response rating (0 to 10 scale): 9
[6]; [22]
  Crabgrass plant response rating: 10
[6]; [23]
  Plant response rating, Crabgrass: 2
[7]; [17]
  Giant foxtail plant response rating: 4
[7]; [18]
  Giant foxtail plant response rating: 7
[7]; [19]
  Plant response rating, Giant foxtail: 9
[7]; [20]
  Giant foxtail plant response rating: 9
[7]; [21]
  Giant foxtail plant response rating: 9
[7]; Preemergence, Rate 250 g/ha
  Giant foxtail plant response rating (0 to 10 scale): 10
[7]; [22]
  Giant foxtail plant response rating: 10
[7]; [23]
  Plant response rating, Giant foxtail: 9
[8]; [17]
  Morningglory plant response rating: 0
[8]; [18]
  Morningglory plant response rating: 2
[8]; [19]
  Plant response rating, Morningglory: 10
[8]; [20]
  Morningglory plant response rating: 0
[8]; [21]
  Morningglory plant response rating: 0
[8]; Preemergence, Rate 250 g/ha
  Morningglory plant response rating (0 to 10 scale): 0
[8]; [22]
  Morningglory plant response rating: 0
[8]; [23]
  Plant response rating, Morningglory: 4
[9]; [17]
  Redroot pigweed plant response rating: 3
[9]; [19]
  Plant response rating, Redroot pigweed: 4
[9]; [20]
  Redroot pigweed plant response rating: 0
[9]; [21]
  Redroot pigweed plant response rating: 5
[9]; Preemergence, Rate 250 g/ha
  Redroot pigweed plant response rating (0 to 10 scale): 5
[9]; [22]
  Redroot pigweed plant response rating: 5
[9]; [23]
  Plant response rating, Redroot pigweed: 3
[10]; [17]
  Rape plant response rating: 0
[10]; [18]
  Rape plant response rating: 0
[10]; [19]
  Plant response rating, Rape: 2
[10]; [20]
  Rape plant response rating: 0
[10]; [21]
  Rape plant response rating: 3
[10]; Preemergence, Rate 250 g/ha
  Rape plant response rating (0 to 10 scale): 3
[10]; [22]
  Rape plant response rating: 8
[10]; [23]
  Plant response rating, Rape: 0
[11]; [17]
  Sugarbeets plant response rating: 0
[11]; [19]
  Plant response rating, Sugarbeets: 0
[11]; [20]
  Sugarbeets plant response rating: 0
[11]; [21]
  Sugarbeets plant response rating: 0
[11]; Preemergence, Rate 250 g/ha
  Sugarbeets plant response rating (0 to 10 scale): 0
[11]; [22]
  Sugarbeets plant response rating: 0
[11]; [23]
  Plant response rating, Sugarbeets: 0
[12]; [17]
  Wheat plant response rating: 0
[12]; [19]
  Plant response rating, Wheat: 3
[12]; [20]
  Wheat plant response rating: 0
[12]; [21]
  Wheat plant response rating: 0
[12]; Preemergence, Rate 250 g/ha
  Wheat plant response rating (0 to 10 scale): 3
[12]; [22]
  Wheat plant response rating: 4
[12]; [23]
  Plant response rating, Wheat: 2
[13]; [17]
  Wild oats plant response rating: 2
[13]; [19]
  Plant response rating, Wild oats: 2
[13]; [20]
  Wild oats plant response rating: 0
[13]; [21]
  Wild oats plant response rating: 0
[13]; Preemergence, Rate 250 g/ha
  Wild oats plant response rating (0 to 10 scale): 4
[13]; [22]
  Wild oats plant response rating: 6
[13]; [23]
  Plant response rating, Wild oats: 2
[14]; [17]
  Nutsedge plant response rating: 0
[14]; [18]
  Nutsedge plant response rating: 0
[14]; [19]
  Plant response rating, Nutsedge: 0
[14]; [20]
  Nutsedge plant response rating: 0
[14]; [21]
  Nutsedge plant response rating: 0
[14]; Preemergence, Rate 250 g/ha
  Nutsedge plant response rating (0 to 10 scale): 0
[14]; [22]
  Nutsedge plant response rating: 0
[14]; [23]
  Plant response rating, Nutsedge: 0
[15]; [24]
  Plant response rating, Rice (0 to 10 scale, 0 is no effect, 10 is complete control): 0
[15]; [25]
  Rice plant response rating (0 to 10 scale, 0 is no effect, 10 is complete control): 0
[15]; [26]
  Rice plant response rating: 0
[15]; [27]
  Rice plant response rating: 0
[16]; [24]
  Plant response rating, Barnyardgrass (0 to 10 scale, 0 is no effect, 10 is complete control): 0
[16]; [25]
  Barnyardgrass plant response rating (0 to 10 scale, 0 is no effect, 10 is complete control): 0
[16]; [26]
  Barnyardgrass plant response rating: 0
[16]; [27]
  Barnyardgrass plant response rating: 1

Source: patent publication US6737383B1, “Herbicidal oxadiazolidines” (priority 1999, dated 2004)
